The results in this text go back to ChEMBL document CHEMBL3227994, “Novel application of proton nuclear magnetic resonance spectroscopy in the identification of 2'-chloronordiazepam metabolites in the dog” (J Med Chem, 1979).

Data set [1] can be described thus: Retention time of the compound. The data set is classed as physicochemical.
Data set [2] in a line: Drug excretion in Beagle dog urine at 10 mg/kg, po measured within 6 days by liquid scintillation spectrophotometric analysis. It is filed as ADME, organism-based, Canis lupus familiaris. On the set-up: dose 10 mg/kg, route oral. The settings on record: in vivo, 144 h.
Data set [3] in a line: Drug excretion in Beagle dog feces at 10 mg/kg, po measured within 6 days by liquid scintillation spectrophotometric analysis. It is filed as ADME, organism-based, Canis lupus familiaris. On the set-up: dose 10 mg/kg, route oral. As to conditions: in vivo, 144 h.
The nature of data set [4]: Drug excretion in Beagle dog urine at 10 mg/kg, po measured within 3 days by liquid scintillation spectrophotometric analysis. It is filed as ADME, organism-based, Canis lupus familiaris. On the set-up: dose 10 mg/kg, route oral. As to conditions: in vivo, 72 h.
Data set [5] is described as follows: Drug metabolism in Beagle dog urine assessed as formation of lorazepam at 10 mg/kg, po after 4 days by TLC analysis. The data set is classed as ADME, organism-based, Canis lupus familiaris. Also on record: dose 10 mg/kg, route oral. The settings on record: in vivo, 96 h.
Data set [6] can be described thus: Drug metabolism in Beagle dog urine assessed as formation of 2'-chloro-4'-hydroxy nordiazepam at 10 mg/kg, po after 4 days by TLC analysis. The data set is classed as ADME, organism-based, Canis lupus familiaris. Also on record: dose 10 mg/kg, route oral. As to conditions: in vivo, 96 h.
Data set [7] in a line: Drug metabolism in Beagle dog urine assessed as formation of 2'-chloro-9-hydroxy nordiazepam at 10 mg/kg, po after 4 days by TLC analysis. Also on record: dose 10 mg/kg, route oral. It is filed as ADME, organism-based, Canis lupus familiaris. As to conditions: in vivo, 96 h.
Data set [8] in a line: Drug excretion in Beagle dog urine assessed as nonconjugated form of compound at 10 mg/kg, po after 4 days by two-dimensional TLC analysis. It is filed as ADME, organism-based, Canis lupus familiaris. Also on record: dose 10 mg/kg, route oral. As to conditions: read-out: Drug excretion.
Data set [9] is described as follows: Drug excretion in Beagle dog urine assessed as nonconjugated form of lorazepam at 10 mg/kg, po after 4 days by two-dimensional TLC analysis. The settings on record: in vivo, 96 h. The data set is classed as ADME, organism-based, Canis lupus familiaris. On the set-up: dose 10 mg/kg, route oral.
Data set [10] can be described thus: Drug excretion in Beagle dog urine assessed as conjugated form of lorazepam at 10 mg/kg, po after 4 days by two-dimensional TLC analysis. The data set is classed as ADME, organism-based, Canis lupus familiaris. Also on record: dose 10 mg/kg, route oral. As to conditions: in vivo, 96 h.
The nature of data set [11]: Drug excretion in Beagle dog urine assessed as nonconjugated form of 2'-chloro-4'-hydroxy nordiazepam at 10 mg/kg, po after 4 days by two-dimensional TLC analysis. The data set is classed as ADME, organism-based, Canis lupus familiaris. Also on record: dose 10 mg/kg, route oral. The settings on record: in vivo, 96 h.
Data set [12] can be described thus: Drug excretion in Beagle dog urine assessed as conjugated form of 2'-chloro-4'-hydroxy nordiazepam at 10 mg/kg, po after 4 days by two-dimensional TLC analysis. The data set is classed as ADME, organism-based, Canis lupus familiaris. On the set-up: dose 10 mg/kg, route oral. The settings on record: in vivo, 96 h.
Data set [13] can be described thus: Drug excretion in Beagle dog urine assessed as nonconjugated form of 2'-chloro-9-hydroxy nordiazepam at 10 mg/kg, po after 4 days by two-dimensional TLC analysis. As to conditions: in vivo, 96 h. The data set is classed as ADME, organism-based, Canis lupus familiaris. On the set-up: dose 10 mg/kg, route oral.
The nature of data set [14]: Drug excretion in Beagle dog urine assessed as conjugated form of 2'-chloro-9-hydroxy nordiazepam at 10 mg/kg, po after 4 days by two-dimensional TLC analysis. It is filed as ADME, organism-based, Canis lupus familiaris. Also on record: dose 10 mg/kg, route oral. As to conditions: in vivo, 96 h.
A short description of data set [15]: Drug excretion in Beagle dog feces assessed as nonconjugated form of compound at 10 mg/kg, po after 4 days by two-dimensional TLC analysis. The data set is classed as ADME, organism-based, Canis lupus familiaris. Also on record: dose 10 mg/kg, route oral. The settings on record: faeces, read-out: Drug excretion.
Data set [16] is described as follows: Drug excretion in Beagle dog feces assessed as conjugated form of compound at 10 mg/kg, po after 4 days by two-dimensional TLC analysis. It is filed as ADME, organism-based, Canis lupus familiaris. The settings on record: in vivo, 96 h. On the set-up: dose 10 mg/kg, route oral.
The nature of data set [17]: Drug excretion in Beagle dog feces assessed as nonconjugated form of lorazepam at 10 mg/kg, po after 4 days by two-dimensional TLC analysis. It is filed as ADME, organism-based, Canis lupus familiaris. Also on record: dose 10 mg/kg, route oral. The settings on record: in vivo, 96 h.
Data set [18] is described as follows: Drug excretion in Beagle dog feces assessed as conjugated form of lorazepam at 10 mg/kg, po after 4 days by two-dimensional TLC analysis. It is filed as ADME, organism-based, Canis lupus familiaris. On the set-up: dose 10 mg/kg, route oral. The settings on record: in vivo, 96 h.
The nature of data set [19]: Drug excretion in Beagle dog feces assessed as nonconjugated form of 2'-chloro-4'-hydroxy nordiazepam at 10 mg/kg, po after 4 days by two-dimensional TLC analysis. The data set is classed as ADME, organism-based, Canis lupus familiaris. Also on record: dose 10 mg/kg, route oral. As to conditions: in vivo, 96 h.
A short description of data set [20]: Drug excretion in Beagle dog feces assessed as conjugated form of 2'-chloro-4'-hydroxy nordiazepam at 10 mg/kg, po after 4 days by two-dimensional TLC analysis. The data set is classed as ADME, organism-based, Canis lupus familiaris. On the set-up: dose 10 mg/kg, route oral. As to conditions: in vivo, 96 h.
Data set [21] can be described thus: Drug excretion in Beagle dog feces assessed as nonconjugated form of 2'-chloro-9-hydroxy nordiazepam at 10 mg/kg, po after 4 days by two-dimensional TLC analysis. On the set-up: dose 10 mg/kg, route oral. It is filed as ADME, organism-based, Canis lupus familiaris. The settings on record: in vivo, 96 h.
Data set [22] is described as follows: Drug excretion in Beagle dog feces assessed as conjugated form of 2'-chloro-9-hydroxy nordiazepam at 10 mg/kg, po after 4 days by two-dimensional TLC analysis. It is filed as ADME, organism-based, Canis lupus familiaris. On the set-up: dose 10 mg/kg, route oral. The settings on record: in vivo, 96 h.
The nature of data set [23]: Drug excretion in dog urine assessed as conjugated form of lorazepam at 10 mg/kg, po. It is filed as ADME, organism-based, Canis lupus familiaris. Also on record: dose 10 mg/kg, route oral. As to conditions: in vivo.
Data set [24] is described as follows: Drug excretion in dog urine assessed as conjugated form of lorazepam at 10 mg/kg, iv. It is filed as ADME, organism-based, Canis lupus familiaris. Also on record: dose 10 mg/kg, route intravenous. As to conditions: in vivo.

In data set [1], `O=C1Nc2ccc(Cl)cc2C(c2ccccc2Cl)=NC1O` (centres undefined) [LORAZEPAM] came in with a Retention_time of 3.8 min.

In the case of `O=C1CN=C(c2ccccc2Cl)c2cc(Cl)ccc2N1` [DELORAZEPAM], the Drug excretion in data set [2] was 60.5 %ID; in data set [3] it was 28.5 %ID; in data set [4], 58 %ID; in data set [9], 0.4 %ID; in data set [10] it was 15.3 %ID; in [11], 1 %ID. For the same compound, the Drug excretion in data set [12] is listed as 2.8 %ID; in data set [13], 1.1 %ID; in data set [14], 2.5 %ID; in data set [16] it was 3.8 %ID; in data set [17], 4.2 %ID; in data set [18] it was 19.9 %ID. Moreover, the Drug excretion amounted to 1.5 %ID in data set [19]; 5.3 %ID in data set [20]; 3.7 %ID in data set [21]; 7.3 %ID in [22]; 13 %ID in [23]; 16 %ID in data set [24]. For the same compound, the Drug metabolism in [5] worked out at 10.7 mg.equiv; in [6], 1.6 mg.equiv; in [7], 1.7 mg.equiv. Further, the dose excreted at 96 h in data set [8] was found to be 1.1%; in [15], 2.7%.
